Values joined by “and” are separate entries in the source; they are usually repeats but may differ in a detail not shown here. Identical values can stand only once.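 A five-concentration, 48-hour dose response in 96-well plates underlies each endpoint, interpolated linearly between surrounding concentrations. GI50 = concentration required for 50% inhibition of growth. TGI is the concentration that stops growth completely.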

Test systems include A498 renal; HCC-2998 colon; HS 578T breast; KM12 colon; LOX IMVI melanoma; MALME-3M melanoma; OVCAR-3 ovarian; TK-10 renal; UACC-257 melanoma; UACC-62 melanoma.
Assay in all cases: inhibition of tumour cell growth, NCI panel, 48 h

For `O=C1/C(=C\c2coc3ccccc3c2=O)c2ccccc2N1c1c(Cl)cccc1Cl`, the GI50 was 4.35 µM in the assay with A498 renal; 5.33 µM in the assay with HCC-2998 colon; 9.05 µM in the assay on HS 578T breast; 3.06 µM in the assay on KM12 colon; 1.52 µM with LOX IMVI melanoma; 2.48 µM in the assay on MALME-3M melanoma. The GI50 with OVCAR-3 ovarian is 2.71 µM; with TK-10 renal, 3.29 µM; in the assay with UACC-257 melanoma, 4.59 µM; in the assay with UACC-62 melanoma, 2.13 µM. The TGI is greater than 100 µM in the assay with A498 renal; greater than 100 µM in the assay on HCC-2998 colon; greater than 100 µM with HS 578T breast; 68.5 µM with KM12 colon; 8.91 µM with LOX IMVI melanoma; 13 µM with MALME-3M melanoma. Moreover, the TGI with OVCAR-3 ovarian is 10.3 µM; in the assay with TK-10 renal it was greater than 100 µM; with UACC-257 melanoma it was greater than 100 µM; in the assay with UACC-62 melanoma, greater than 100 µM.

On to `COc1cc([C@@H]2c3cc4c(cc3[C@@H](O[C@@H]3O[C@@H]5CO[C@@H](c6cccs6)O[C@H]5[C@H](O)[C@H]3O)[C@H]3COC(=O)[C@H]23)OCO4)cc(OC)c1O`, for which the GI50 in the assay with A498 renal is 0.284 µM; in the assay on HCC-2998 colon it was 0.385 µM; in the assay on HS 578T breast, 2.03 µM; in the assay with KM12 colon, 0.634 µM; in the assay on LOX IMVI melanoma, 0.0969 µM; in the assay on MALME-3M melanoma it was 0.435 µM. The GI50 is 1.42 µM with OVCAR-3 ovarian, 0.796 µM in the assay on UACC-257 melanoma and 0.233 µM in the assay on UACC-62 melanoma. For the same compound, the TGI in the assay with A498 renal amounted to 2.2 µM; in the assay on HCC-2998 colon, 2.02 µM; in the assay with HS 578T breast, 15.3 µM; in the assay with KM12 colon, 4.34 µM; in the assay on LOX IMVI melanoma it was 2.26 µM; in the assay on MALME-3M melanoma it was 5.02 µM. Further, the figures for the TGI in the assay on OVCAR-3 ovarian, with UACC-257 melanoma and in the assay with UACC-62 melanoma were 5.45 µM, 10.5 µM and 3.3 µM, respectively.

Consider `O=C1C(Cl)=C(Nc2cccc(O)c2)C(=O)N1c1ccc(Cl)c(Cl)c1`, for which the GI50 with A498 renal was 12.1 µM; in the assay with HCC-2998 colon, 15 µM; in the assay on HS 578T breast, 20.5 µM; with KM12 colon it was 17 µM; in the assay on LOX IMVI melanoma, 15.8 µM; in the assay on MALME-3M melanoma, 19.7 µM. The figures for the GI50 with OVCAR-3 ovarian, in the assay with TK-10 renal and in the assay on UACC-62 melanoma were 17.9 µM, 25.7 µM and 27.6 µM, respectively. Moreover, the TGI with A498 renal was found to be 28.7 µM; with HCC-2998 colon it was 29.5 µM; in the assay with HS 578T breast, 54.3 µM; in the assay on KM12 colon, 32.5 µM; in the assay on LOX IMVI melanoma it was 33.3 µM; with MALME-3M melanoma it was 55 µM. Besides, the TGI with OVCAR-3 ovarian is 36.4 µM; in the assay on TK-10 renal, 63.8 µM; in the assay with UACC-62 melanoma it was greater than 100 µM.

As to `Nc1ccccc1NC(=O)c1ccc(CN2CCC/C(=C\c3cccc(Cl)c3)C2=O)cc1`, the GI50 in the assay with A498 renal was 0.441 µM; in the assay with HCC-2998 colon, 1.18 µM; in the assay on HS 578T breast it was 0.321 µM; in the assay with KM12 colon it was 0.378 µM; with LOX IMVI melanoma it was 0.0664 µM; in the assay on MALME-3M melanoma it was 1.59 µM. The GI50 in the assay on OVCAR-3 ovarian is 0.406 µM; with TK-10 renal, 1.11 µM; in the assay with UACC-62 melanoma, 0.0517 µM. For the same compound, the TGI in the assay with A498 renal was 3.66 µM; in the assay on HCC-2998 colon, 5.7 µM; in the assay on HS 578T breast it was greater than 100 µM; in the assay on KM12 colon it was 13.4 µM; in the assay on LOX IMVI melanoma, 2.06 µM; in the assay on MALME-3M melanoma, 16.4 µM. Moreover, the figures for the TGI in the assay with OVCAR-3 ovarian, in the assay with TK-10 renal and with UACC-62 melanoma were 7.7 µM, 5.88 µM and 14.6 µM, respectively.

As for `CNc1ccc(-c2cc(=O)oc3ccc(Cl)cc23)cc1`, the GI50 with A498 renal was 0.0811 µM and 0.0598 µM; in the assay with HCC-2998 colon it was 0.373 µM and 0.127 µM; with HS 578T breast, 0.083 µM and 0.0725 µM; in the assay on KM12 colon, 0.0506 µM and 0.0433 µM; with LOX IMVI melanoma, 0.0636 µM and 0.0542 µM; with OVCAR-3 ovarian, 0.0342 µM. The GI50 is 0.702 µM and 0.21 µM with TK-10 renal; greater than 100 µM in the assay with UACC-257 melanoma; 0.0369 µM and 0.0431 µM in the assay on UACC-62 melanoma. The TGI in the assay with HCC-2998 colon is 17.1 µM; with KM12 colon, greater than 100 µM; in the assay on LOX IMVI melanoma it was greater than 100 µM; in the assay with OVCAR-3 ovarian it was 0.27 µM; in the assay on TK-10 renal it was greater than 100 µM; in the assay with UACC-257 melanoma, greater than 100 µM. The TGI in the assay on UACC-62 melanoma amounted to 89.7 µM.

Turning to `CCOC(=O)C1=C(C)NC(=O)NC1c1coc2cc(C)cc(C)c2c1=O` (configuration not stated), the TGI in the assay with A498 renal was greater than 100 µM; in the assay with HS 578T breast it was greater than 100 µM; in the assay with KM12 colon it was greater than 100 µM; with LOX IMVI melanoma, greater than 100 µM; in the assay on MALME-3M melanoma, greater than 100 µM; in the assay with OVCAR-3 ovarian, greater than 70.5 µM. The TGI in the assay with TK-10 renal, with UACC-257 melanoma and with UACC-62 melanoma was greater than 100 µM in each case.

Regarding `CN1c2ccccc2S(=O)(=O)n2c(COc3ccc(Cl)cc3)nnc21`, the TGI in the assay with A498 renal, in the assay on HCC-2998 colon, with HS 578T breast, in the assay with KM12 colon, with LOX IMVI melanoma and in the assay with OVCAR-3 ovarian was greater than 100 µM each time. Moreover, the TGI in the assay with TK-10 renal, with UACC-257 melanoma and in the assay on UACC-62 melanoma was greater than 100 µM in each case.

On to `CNC(C)C(=O)N[C@H](C(=O)N1CCC[C@@H]1CN(CCc1ccccc1)C(=O)C(F)(F)F)[C@H](C)OCC#CC#CCO[C@H](C)[C@H](NC(=O)[C@H](C)NC)C(=O)N1CCC[C@H]1CN(CCc1ccccc1)C(=O)C(F)(F)F` (some centres not stated), for which the GI50 is 1.03 µM in the assay with A498 renal; 1.45 µM in the assay on HCC-2998 colon; 1.55 µM in the assay on HS 578T breast; 1.71 µM with KM12 colon; 0.0115 µM in the assay with MALME-3M melanoma; 1.42 µM in the assay with OVCAR-3 ovarian. The GI50 with TK-10 renal was 2.22 µM; in the assay with UACC-257 melanoma it was 1.28 µM; with UACC-62 melanoma, 1.77 µM. For the same compound, the TGI was 2.61 µM in the assay on A498 renal; 3.04 µM with HCC-2998 colon; 3.65 µM with HS 578T breast; 3.25 µM in the assay on KM12 colon; 0.716 µM with MALME-3M melanoma; 2.86 µM with OVCAR-3 ovarian. The values for the TGI with TK-10 renal, in the assay on UACC-257 melanoma and in the assay with UACC-62 melanoma were 3.8 µM, 2.72 µM and 3.24 µM, respectively.

Regarding `CCC1CC(=O)N(SCC(N)C(=O)O)C1=O` (configuration not stated), the TGI in the assay with A498 renal, in the assay on HS 578T breast, in the assay on KM12 colon, with LOX IMVI melanoma, with MALME-3M melanoma and in the assay on OVCAR-3 ovarian was greater than 100 µM throughout. Also, the TGI in the assay with TK-10 renal, with UACC-257 melanoma and in the assay on UACC-62 melanoma was greater than 100 µM throughout.

For the compound `O=c1[nH]c(SCc2c(Cl)c(Cl)c(Cl)c(Cl)c2Cl)nc(=S)[nH]1`, the TGI with A498 renal is greater than 100 µM; in the assay on HS 578T breast, greater than 100 µM; in the assay on KM12 colon, greater than 100 µM; with LOX IMVI melanoma it was greater than 100 µM; in the assay on MALME-3M melanoma, 73.4 µM; in the assay with OVCAR-3 ovarian it was 31 µM. The TGI in the assay on TK-10 renal, in the assay with UACC-257 melanoma and with UACC-62 melanoma was greater than 100 µM throughout.

For `O=C(NNC(=O)c1ccncc1)c1ccncc1`, the TGI in the assay with A498 renal, in the assay with HS 578T breast, in the assay on KM12 colon, in the assay with LOX IMVI melanoma, in the assay with MALME-3M melanoma and in the assay with OVCAR-3 ovarian was greater than 100 µM each time. The TGI in the assay on TK-10 renal, in the assay on UACC-257 melanoma and in the assay with UACC-62 melanoma was greater than 100 µM throughout.

For the compound `CCOC(=O)C1=C(C)NC2SC(=O)/C(=C\c3ccccc3)N2C1c1ccccc1` (configuration not stated), the GI50 in the assay on A498 renal was greater than 100 µM; in the assay on HCC-2998 colon, greater than 100 µM; in the assay with HS 578T breast, greater than 100 µM; with KM12 colon, 73.7 µM; with LOX IMVI melanoma it was greater than 100 µM; with OVCAR-3 ovarian, greater than 100 µM. Also, the GI50 in the assay on TK-10 renal was 56.2 µM; in the assay on UACC-257 melanoma, greater than 100 µM; with UACC-62 melanoma, greater than 100 µM. The TGI in the assay on A498 renal, with HCC-2998 colon, with HS 578T breast, in the assay with KM12 colon, in the assay with LOX IMVI melanoma and in the assay with OVCAR-3 ovarian was greater than 100 µM throughout. Also, the TGI with TK-10 renal, in the assay with UACC-257 melanoma and with UACC-62 melanoma was greater than 100 µM throughout.

`COc1ccc(/C=C/c2cc(N3CCOCC3)c3cc(F)c(F)cc3n2)cc1OC`: the GI50 in the assay on A498 renal was 1.23 µM; in the assay on HCC-2998 colon, 0.876 µM; with HS 578T breast, 2.37 µM; in the assay on KM12 colon, 1.24 µM; in the assay with LOX IMVI melanoma it was 0.516 µM; in the assay with OVCAR-3 ovarian, 0.351 µM. Besides, the values for the GI50 in the assay on TK-10 renal, in the assay with UACC-257 melanoma and with UACC-62 melanoma were 1.14 µM, 2.39 µM and 0.436 µM, respectively. The TGI in the assay on A498 renal amounted to 4.63 µM; in the assay with HCC-2998 colon, 4.21 µM; with HS 578T breast it was 28.8 µM; in the assay with KM12 colon, 13.7 µM; in the assay on LOX IMVI melanoma, 2.27 µM; with OVCAR-3 ovarian, 2.26 µM. Moreover, the results for the TGI in the assay on TK-10 renal, in the assay on UACC-257 melanoma and with UACC-62 melanoma were 10.2 µM, 9.89 µM and 2.24 µM, respectively.

As for `CCN(CC)C(=S)SC1CCOP(=O)(N(CCCl)CCCl)N1C` (configuration not stated), the TGI in the assay with A498 renal was greater than 100 µM; in the assay with HCC-2998 colon it was greater than 68.7 µM; in the assay with HS 578T breast it was greater than 100 µM; with KM12 colon, greater than 58.5 µM; in the assay on MALME-3M melanoma, 45.9 µM; in the assay on OVCAR-3 ovarian it was greater than 100 µM. Moreover, the TGI is greater than 100 µM with TK-10 renal, greater than 56.1 µM in the assay on UACC-257 melanoma and 17.3 µM with UACC-62 melanoma.

Turning to `CC1(C)C(=S)C(C)(C)C1=S`, the TGI with HCC-2998 colon, with HS 578T breast, with KM12 colon, with LOX IMVI melanoma, with MALME-3M melanoma and in the assay on OVCAR-3 ovarian was greater than 100 µM in each case. Besides, the TGI in the assay with TK-10 renal, in the assay with UACC-257 melanoma and with UACC-62 melanoma was greater than 100 µM throughout.
